Test results from article PMC2099433, “The binding site for neohesperidin dihydrochalcone at the human sweet taste receptor” (BMC Structural Biology, 2007).
Positions count from the first letter of the chain named. Where a SMILES comes first, the peptide text is derived from it.

What was measured:
[1] = biological target: T1, hTAS1R2 + hTAS1R3 H641A^3.33 (Homo sapiens, UniProt Q7RTX0+Q8TE23, H641A); experiment: Calcium response (FLIPR), hTAS1R3 mutant coexpressed with hTAS1R2; type: cell-based; conditions: variant H641A^3.33; for Emax: read-out: maximal signal (% of wt)
T1 construct: expressed in transfected cells; host or cells: HEK293T cells stably expressing G16Gust44
T1 sequence (Q8TE23 20-839): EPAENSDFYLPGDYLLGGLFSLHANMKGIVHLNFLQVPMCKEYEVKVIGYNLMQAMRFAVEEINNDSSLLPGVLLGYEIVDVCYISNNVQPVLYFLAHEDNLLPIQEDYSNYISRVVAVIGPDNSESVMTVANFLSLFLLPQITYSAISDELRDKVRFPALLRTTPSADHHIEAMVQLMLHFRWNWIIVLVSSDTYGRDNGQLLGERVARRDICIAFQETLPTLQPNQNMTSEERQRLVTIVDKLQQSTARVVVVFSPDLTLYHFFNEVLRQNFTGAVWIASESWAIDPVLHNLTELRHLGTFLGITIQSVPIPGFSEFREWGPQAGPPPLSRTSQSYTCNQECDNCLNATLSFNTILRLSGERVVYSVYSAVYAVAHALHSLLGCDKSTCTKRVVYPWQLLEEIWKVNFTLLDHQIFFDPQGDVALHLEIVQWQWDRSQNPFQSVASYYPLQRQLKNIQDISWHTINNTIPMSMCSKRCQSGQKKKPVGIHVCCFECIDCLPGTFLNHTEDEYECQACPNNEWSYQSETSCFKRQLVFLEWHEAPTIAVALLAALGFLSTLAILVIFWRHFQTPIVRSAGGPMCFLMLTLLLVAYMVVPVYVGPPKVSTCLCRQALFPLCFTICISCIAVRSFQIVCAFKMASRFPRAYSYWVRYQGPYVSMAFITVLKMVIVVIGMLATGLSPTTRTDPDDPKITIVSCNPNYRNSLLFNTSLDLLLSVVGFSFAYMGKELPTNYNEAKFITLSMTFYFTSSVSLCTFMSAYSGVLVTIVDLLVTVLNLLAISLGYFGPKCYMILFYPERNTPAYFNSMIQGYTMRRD
T1 sequence (Q7RTX0 21-852 H641A): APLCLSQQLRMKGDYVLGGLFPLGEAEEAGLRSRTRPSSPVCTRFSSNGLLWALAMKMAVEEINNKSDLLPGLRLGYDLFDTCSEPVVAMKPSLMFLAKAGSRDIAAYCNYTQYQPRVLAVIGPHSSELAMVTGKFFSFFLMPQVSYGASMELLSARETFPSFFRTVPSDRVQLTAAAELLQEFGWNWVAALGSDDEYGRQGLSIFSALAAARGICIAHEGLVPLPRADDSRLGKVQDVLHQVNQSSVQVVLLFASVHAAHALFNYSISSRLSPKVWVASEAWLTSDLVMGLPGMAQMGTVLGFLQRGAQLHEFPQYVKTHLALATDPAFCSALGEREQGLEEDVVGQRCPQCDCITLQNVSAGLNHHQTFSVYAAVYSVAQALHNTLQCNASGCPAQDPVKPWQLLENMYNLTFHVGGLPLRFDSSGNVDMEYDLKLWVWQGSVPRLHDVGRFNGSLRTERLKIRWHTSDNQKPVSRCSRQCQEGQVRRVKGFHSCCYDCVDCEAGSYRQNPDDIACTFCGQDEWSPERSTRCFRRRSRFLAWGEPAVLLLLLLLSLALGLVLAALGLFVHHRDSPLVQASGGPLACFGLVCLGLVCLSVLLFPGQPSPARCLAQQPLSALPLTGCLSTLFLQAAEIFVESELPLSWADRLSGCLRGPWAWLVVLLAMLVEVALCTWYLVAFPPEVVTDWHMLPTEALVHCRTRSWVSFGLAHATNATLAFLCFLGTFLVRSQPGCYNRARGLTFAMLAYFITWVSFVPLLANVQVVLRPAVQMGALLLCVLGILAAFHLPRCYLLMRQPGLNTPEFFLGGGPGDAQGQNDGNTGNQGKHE
Method in brief: (§1)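 Each mutant receptor pair was expressed transiently in G16Gust44-expressing HEK293T cells; stimuli dissolved in C1 solution triggered calcium responses, recorded by fluorometric imaging and scaled to baseline fluorescence (ΔF/F) after mock correction, from at least three experiments run in duplicate.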

[2] = biological target: T2, hTAS1R2 + hTAS1R3 L800F^7.38 (Homo sapiens, UniProt Q7RTX0+Q8TE23, L800F); experiment: as above; type: cell-based; conditions: variant L800F^7.38; for Emax: read-out: maximal signal (% of wt)
T2 construct: expressed in transfected cells; host or cells: HEK293T cells stably expressing G16Gust44
T2 sequence (Q7RTX0 21-852 L800F): T1 sequence (Q7RTX0 21-852 H641A) with A621H, L780F
T2 sequence (Q8TE23 20-839): T1 sequence (Q8TE23 20-839)
Method in brief: as §1

SMILES	EC50 [1] [µM]	Emax [1] [%]	EC50 [2] [µM]	Emax [2] [%]
COc1ccc(CCC(=O)c2c(O)cc(O[C@@H]3O[C@H](CO)[C@@H](O)[C@H](O)[C@H]3O[C@@H]3O[C@@H](C)[C@H](O)[C@@H](O)[C@H]3O)cc2O)cc1O [NHDC, neohesperidin dihydrochalcone]	1200 ± 400	57 ± 22	200 ± 100	91 ± 70
COC(=O)[C@H](Cc1ccccc1)NC(=O)[C@@H](N)CC(=O)O [aspartame] (HELM PEPTIDE1{D.F.[CO[*:1]]}$$$$V2.0)	1800 ± 400	79 ± 70	1200 ± 300	90 ± 1
